Experimental data taken from patent US20040053842A1, “Methods of treatment with CETP inhibitors and antihypertensive agents” (Pfizer Inc., priority 2002, published 2004).

Assay: aqueous solubility
Assay type: physicochemical
Settings: aqueous environments

solubility: < 0.04 µg/mL
SMILES: CCOC(=O)N1c2ccc(C(F)(F)F)cc2[C@@H](N(Cc2cc(C(F)(F)F)cc(C(F)(F)F)c2)C(=O)OC)C[C@H]1CC [torceptrapib, [2R,4S]-4-[(3,5-bis-trifluoromethyl-benzyl)-methoxycarbonyl-amino]-2-ethyl-6-trifluoromethyl-3,4-dihydro-2H-quinoline-1-carboxylic acid ethyl ester]
